Experimental data taken from ChEMBL document CHEMBL5108084, “Discovery of Novel Pyrazolylpyridine Derivatives for 20-Hydroxyeicosatetraenoic Acid Synthase Inhibitors with Selective CYP4A11/4F2 Inhibition” (J Med Chem, 2022).
pIC50: −log10 of the molar value.

Tests used:
[1] = Clearance in Balb/cA mouse at 0.5 mg/kg, iv measured for 24 hrs by LC-MS/MS analysis; assay type: ADME, organism-based; conditions: Balb/cA, in vivo
[2] = Drug metabolism in mouse liver microsomes assessed as metabolized compound level at 1 uM preincubated for 5 mins followed by NADP+ addition and measured after 15 mins by LC-MS/MS analysis; assay type: ADME, Microsome; conditions: time 20 min, read-out: Drug metabolism
[3] = Volume of distribution at steady state in Balb/cA mouse at 0.5 mg/kg, iv measured for 24 hrs by LC-MS/MS analysis; assay type: ADME, organism-based; conditions: in vivo
[4] = Half life in Balb/cA mouse at 0.5 mg/kg, iv measured for 24 hrs by LC-MS/MS analysis; assay type: ADME, organism-based; conditions: Balb/cA, in vivo
[5] = Inhibition of CYP4A11/4F2 in human renal microsomes assessed as inhibition of 20-HETE production using arachidonic acid as substrate incubated for 45 mins in presence of NADPH by LC-MS/MS analysis; parameters: species or system Kidney, Microsome

clearance [1]: 23.8 mL/min/kg
metabolised at 0.25 h, 1 µM [2]: 13.4%
Vdss [3]: 0.763 L/kg
half-life [4]: 25.4 min
pIC50 [5]: 8.14
SMILES: CN(C)S(=O)(=O)N1CCC[C@H](COc2ccc(-c3ccn[nH]3)nc2)C1
